Entries after “also recorded” stand apart in the source; their conditions may differ.

Assay [1] has as its system primary mouse keratinocytes. Kind of assay: cytokine ELISAs from primary keratinocyte culture media. It is filed as cell-based. On the procedure: (§1) Adult (6-8 weeks) mouse keratinocytes were isolated from male or female animals using protocols described previously (57). In brief, tail skin was incubated in 1 mg/ml Dispase II (Roche) overnight at 4° C. The epidermis was physically removed from the dermis with tweezers following Dispase II treatment, subsequently digested with TrypLE (Thermo) for 20 min at room temperature, and keratinocytes were detached by vigorously shaking in EpiLife culture medium and filtered with a 70 μm strainer (Fisher scientific). Isolated cells were seeded at a density of 10^5 cells/cm^2 cultured with EpiLife (Gibco) in 12-well plates precoated with coating matrix (Gibco) and used between 3 and 5 days after isolation.
For cytokine ELISAs, primary keratinocytes were either mock-treated or treated with 8 μM TCT or 30 μM iE-DAP for 24 h Culture medium was harvested and centrifuged at 500 g for 15 mins and analyzed using ELISA kits detecting CXCL1 (KC), IL-6, TNF-α, IL-1α and IL-1β (R&D systems) following the manufacturer's protocols. In brief, 96-well ELISA plates were coated with capture antibody overnight at room temperature. The next day, the plate was washed three times with wash buffer and incubated with harvested media (100 μl) for 2 h followed by three washes and then probed with biotin-labelled detection antibody for 2 h. After three washes with wash buffer, plates were incubated with HRP-streptavidin for 20 min at room temperature (RT), developed with TMB (3,3′,5,5″-tetramethylbenzidine) substrate for 20 min at RT, and then stopped with IN sulfuric acid. Plate was analyzed at 450 nm with wavelength correction at 540 nm.

The target in assay [2] is T1, Slc46a2 (Mus musculus, UniProt Q8CA03).
T1 construct: primary mouse keratinocytes, which express Slc46a2 and Nod1; endogenous in cells; host or cells: primary mouse epidermal keratinocytes (WT or Nod1-/-; Slc46a2-/- cells served as the negative control)
T1 sequence (Q8CA03 1-479): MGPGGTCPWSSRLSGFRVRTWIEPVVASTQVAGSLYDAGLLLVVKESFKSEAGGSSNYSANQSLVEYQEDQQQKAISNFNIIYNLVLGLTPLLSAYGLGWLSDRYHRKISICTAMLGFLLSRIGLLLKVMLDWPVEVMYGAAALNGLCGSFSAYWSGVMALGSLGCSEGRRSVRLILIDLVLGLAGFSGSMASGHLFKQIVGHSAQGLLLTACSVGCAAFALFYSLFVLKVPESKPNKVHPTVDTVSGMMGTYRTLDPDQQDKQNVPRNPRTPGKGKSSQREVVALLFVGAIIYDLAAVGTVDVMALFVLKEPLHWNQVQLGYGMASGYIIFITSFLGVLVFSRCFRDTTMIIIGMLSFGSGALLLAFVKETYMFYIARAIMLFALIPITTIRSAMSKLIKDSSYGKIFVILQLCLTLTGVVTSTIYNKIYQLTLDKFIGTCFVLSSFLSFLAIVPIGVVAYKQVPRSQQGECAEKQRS
Kind of assay: click-muropeptide uptake into keratinocytes (CalFluor 488 Azide, confocal imaging and lysate fluorescence). The assay is classed as cell-based. The note with it: WT or Nod1−/− keratinocytes, 30 μM click-iE-DAP; MTX 250 μM or unlabeled iE-DAP 30 μM. On the procedure:
For visualization, mouse keratinocytes were challenged with click-iE-DAP (30 μM) or click-MDP (20 μM) 37° C. for 30-60 min, cells washed 2× with 1×PBS to remove access of click-muropeptides and fixed with 4% paraformaldehyde in PBS at RT for 10 min. Cells were permeabilized with 1% Triton-X in PBS for 10 min at RT and blocked with 1% BSA in PBS. These permeabilized cells were then incubated in click-reaction conditions (250 μM CuSO4, 35 μM BTAA, 60 μM sodium ascorbate) with 2.5 μM CalFluor 488 Azide at RT for 30 mins. Cells were then washed and mounted on slides, with DAPI containing mounting media. Slides were imaged with a Leica SP8 confocal microscope.

Assay [3] concerns mouse skin (NOD1/NOD2 response). Kind of assay: neutrophil recruitment to pinnae after intradermal injection. It is filed as in vivo. The note with it: TCT 8 μM, iE-DAP 30 μM. On the procedure: […] After 3 h, both ears were individually harvested, and stored in ice cold PBS on ice until further processing for flow cytometry staining.
Pinnae were cut into small pieces and incubated for 30 min at 37° C. in a solution of 1 mg/ml collagenase (Sigma) in DMEM media containing 10% FBS. Ice-cold FACS buffer (2% FBS in PBS) was added to skin samples to stop the reaction. Then samples were placed on 70 μm cell strainers and ground using a cell strainer pestle to create a single cell suspension. Cells were spun at 180 g for 5 min at 4° C. and resuspended in FACS buffer.
(§2) 1×10^6 cells were stained with F4/80-PE/Cy7 (1:200), CD45-alexaflour700 (1:200) and Gr1-PE (1:200) for 30 min on ice in the dark. Samples were washed three times with FACS buffer and analyzed with a Cytek Aurora cytometer. Results were analyzed with FlowJo software (Tree Star, USA).

Assay [4] deals with mouse peritoneum (NOD1/NOD2 response). Kind of assay: neutrophil recruitment to the peritoneum after intraperitoneal injection. To be noted: 3 h, iE-DAP 30 μM, MDP 10 μM. The assay is classed as in vivo. How it is done: For peritoneal cell extraction, animals were euthanized and cells from peritoneal cavity were isolated by peritoneal lavage (58). Harvested cell suspensions were centrifuged at 300 g for 5 min at 4° C. and resuspended in FACS buffer.
as §2

Assay [5] relates to tape stripped mouse skin. Kind of assay: neutrophil recruitment after topical application to tape stripped skin. It is filed as in vivo. To be noted: topical 10 μl of 30 μM iE-DAP on tape stripped skin, 3 h. How it is done:
The epidermal barrier of the dorsal ear pinnae was disrupted by mild tape stripping. A small piece of surgical tape (Transpore surgical tape) was manually applied to the skin and removed, repeated 5 consecutive rounds using a fresh piece of tape for each round. Then, 10^7 CFU C. accolens or 30 μM iE-DAP in 50% glycerol was applied to one pinna and 50% glycerol was applied to contralateral pinna. After 3 h mice were euthanized, and pinnae were processed as described above.

In assay [6] the test system is primary human foreskin keratinocytes. As to the kind of experiment: Propidium Iodide (PI) uptake assay in primary human foreskin keratinocytes. The assay is classed as cell-based. To be noted: indicated iE-DAP doses, standard tissue culture.
Assay [7] has as its system HSE dermal fibroblasts (CXCL8). As to the kind of experiment: CXCL8 induction in Human Skin Equivalents (HSE) skin organoids. The assay is classed as cell-based. To be noted: HSE epidermis treated with 30 μM iE-DAP for 24 h.
Assay [8] has as its system primary dermal fibroblasts. As to the kind of experiment: CXCL1 (KC) ELISA from primary dermal fibroblasts. The assay is classed as cell-based, mouse. To be noted: iE-DAP 30 μM or IL-1α 10 ng/ml, 24 hrs. On the procedure: Mouse dermal fibroblasts were isolated as described herein. In brief, mouse pinnae were incubated on a table shaker (200 rpm) in a collagenase D-pronase solution [2.5 mg/ml collagenase-D (Sigma), 20 mg/ml pronase (Sigma) diluted in 1M Tris, pH 8.0 and containing 1 μM EDTA (Sigma)] for 90 min at 37° C. Fibroblasts were then isolated by pressing digested skin through a 70 μm cell strainer, and cells were collected and cultured in RPMI 1640 medium with 10% FBS, 50 μM 2-mercaptoethanol, 100 μM asparagine, 2 mM glutamine, 1% penicillin-streptomycin for 2-4 passages before stimulating with immune elicitors, and/or harvesting media or cells.
For cytokine ELISAs from dermal fibroblast, cells were challenged with IL-1α (10 ng/ml) or 30 μM iE-DAP for 24 h, and media was collected and processed for ELISA as described above.

Assay [9] concerns primary mouse keratinocytes. As to the kind of experiment: keratinocyte cell permeabilization assay (Sytox dye uptake, live cell imaging). The assay is classed as cell-based. To be noted: WT keratinocytes, 30 μM iE-DAP, 24 h; MTX increasing concentration, zVAD-fmk 10 μM, DMF 50 μM. On the procedure:
as §1
For cell permeabilization assays, 1×10^5 keratinocytes/well were seeded in a 96-well plate (Denville Scientific Inc.). After reaching 80% confluency, 30 μM iE-DAP was added to culture media with 1 nM Sytox red dye (Thermo) and 0.2 nM hoechst stain (Thermo). Plates were then cultured in a Cytation5 (BioTek) live imaging device and each well was imaged every 30 min for 24 hours. For analysis, Gen5 software were used to count the total number of Hoechst-stained nuclei and the total number of permeabilized cells were quantified as the number of Sytox positive nuclei. The Percentage of Sytox^+ cells was then calculated and plotted.

The test system of assay [10] is primary mouse keratinocytes. As to the kind of experiment: lipid nanoparticle (NP) mediated iE-DAP/dye delivery into keratinocytes. It is filed as cell-based. To be noted: keratinocytes pretreated with 250 μM MTX, iE-DAP delivered by dye-loaded NP. On the procedure:
Briefly, a matrix of DOPC/DSPC/DOPG/cholesterol/DSPE-mPEG at 33.5/33.5/20/10/3 mol % was prepared in chloroform and dry lipid/cholesterol films were allowed to form. Films were rehydrated with iE-DAP (Invivogen) prepared in PBS at 1.2 mg/mL and these samples were vortexed for 30 sec every 10 min for 1 hr at 56° C. to complete this process. Following rehydration, samples were ultrasonicated in alternating 20 sec pulse/10 sec off cycles for 5 min at an amplitude of 20% to form iEDAP-encapsulated lipid-based NPs. Samples were dialyzed for 1 hr following ultrasonication. Dynamic light scattering (DLS) and zeta potential measurements using a Malvern Zetasizer were used to characterize NP size and surface charge, respectively. […] Quant-IT assay (Thermo Fisher Scientific) measurements were used to measure average iE-DAP encapsulation at 998.1 μg/mL and an average encapsulation efficiency of 57.1%. To visualize iE-DAP-encapsulated NPs, 0.1 mol % of the fluorescent lipid tracer dye 3,3′-dioctadecyloxacarbocyanine perchlorate (DiO) were added to the lipid/cholesterol films. Mouse keratinocytes were challenged iE-DAP loaded NPs, or control empty NPs, at 37° C. at 10 μg/ml final concentration (˜30 μM iE-DAP), and then monitored for Sytox uptake assay for 24 h, as described above. […]

The subject of assay [11] is psoriasis-like inflammation on mouse pinnae. As to the kind of experiment: IMQ model of psoriasis-like dermatitis (ear thickness, H&E histology). It is filed as in vivo. The note with it: IMQ daily with topical 50 μl of 250 μM MTX. On the procedure: Pinnae were harvested 3 h after DAP-muropeptide administration or 7 d after topical application of IMQ and fixed in PBS containing 10% formalin. Paraffin-embedded sections were cut at […], stained with H&E, and imaged by light microscopy.
The induction of psoriasis-like inflammation on mouse pinnae was done as previously described (60). In brief, mice were treated daily for up to 6 d with 5 mg 5% IMQ cream topically applied on one pinna, while the other pinnae were treated with a similar amount of Vaseline, as vehicle control. Ear thickness was measured daily using a digital caliper. The change in ear thickness over time was reported as the difference related to the first day of topical application. For the bacterial assisted psoriasis model, 5 mg 5% IMQ cream was topically applied on one pinna, while the contralateral pinna was treated with a similar amount of Vaseline for 3 days, and then 10^7 CFU of C. accolens, in 50% glycerol, was topically applied daily to both pinnae. Ear thickness was measured daily using a digital caliper. C. accolens, originally from ATCC, was provided by J. Kang and grown as described (61).

Consider `NC(CCCC(NC(=O)CC[C@@H](N)C(=O)O)C(=O)O)C(=O)O` (stereo in doubt) [iE-DAP, γ-D-Glu-mDAP], for which the “IL-1α release by keratinocytes” value in assay [1] (30 μM iE DAP, 24 h) is listed as “released IL-1α”. Also, the “induction of TNF, IL-6, IL-1β and IL-17 in keratinocytes” value in assay [1] (30 μM iE-DAP, 24 hrs) was “not induced”. Moreover, the “effect on cytosolic accumulation / cellular uptake of click-iE-DAP” value in assay [2] is on record as “interfered”. In addition, the “neutrophil / leukocyte recruitment to the skin in WT mice” value in assay [3] (intradermal 10 μl, LPS 10 μg/ml, 1 to 24 h) is listed as “recruited inflammatory cells”. Moreover, in assay [3] (intradermal, 3 h, Tri-DAP 25 μM, C12-iE-DAP 20 μM, MDP 10 μM), the “neutrophil recruitment response in Slc46a2-deficient mice compared to WT” value is “failed to respond; also recorded: significantly reduced”. Moreover, in assay [4], the “neutrophil recruitment response in Slc46a2−/− mice” value is “did not respond” and the “neutrophil recruitment response in Slc46a3−/− mice” value was “responding normally”. Moreover, the “neutrophil recruitment response of WT skin” value in assay [5] is reported as “responded”. In addition, the “membrane permeabilization of primary human keratinocytes (PI uptake)” value in assay [6] is “failed to induce; also recorded: did not induce cell permeabilization”. For the same molecule, the “CXCL8 in HSE dermal fibroblasts” value in [7] is on record as “induction of CXCL8; also recorded: High expression of CXCL8”. Moreover, in assay [8], the “CXCL1 (KC) response of primary dermal fibroblasts” value is on record as “did not respond; also recorded: unresponsive”.
`CN(Cc1cnc2nc(N)nc(N)c2n1)c1ccc(C(=O)N[C@@H](CCC(=O)O)C(=O)O)cc1` [MTX, methotrexate]: the “inhibition of DAP-muropeptide triggered keratinocyte permeabilization (Sytox uptake)” value in assay [9] is on record as “inhibited”. For the same molecule, the “IL-1α release in iE-DAP treated WT keratinocytes” value in assay [1] (250 μM MTX along with 30 μM iE DAP, 24 hours) is recorded as “prevented”. The “inhibition of DAP-muropeptide triggered IL-1α release” value in assay [1] (keratinocytes, iE-DAP, increasing concentrations of MTX, dose dependent) is given as “inhibited”. Further, in [2], the “effect on cytosolic accumulation / cellular uptake of click-iE-DAP” value is “blocked; also recorded: interfered”. For the same molecule, the “effect on NP-mediated iE-DAP / dye delivery” value in [10] is “failed to interfere; also recorded: did not affect”. The “residual inflammation in Slc46a2−/− and Nod1−/− skin” value in assay [11] (Slc46a2−/− and Nod1−/− mice) is recorded as “no observable effect; also recorded: minimalistic effect”. Further, in assay [11] (WT mice), the “psoriasis like inflammation in WT skin” value is “reduced; also recorded: less inflamed”.

The values above are taken from patent US20250161399A1, “TARGETING SLC46A2-MEDIATED MUROPEPTIDE TRANSPORT TO TREAT PSORIASIS” (University of Massachusetts, priority 2021, published 2025).
